Data on 3 compounds can be found in patent USRE30241E, “Esters of 3-(hydroxy or hydroxymethyl)-4-hydroxyphenyl aminomethyl ketones” (Sterling Drug Inc., priority 1970, dated 1980).

Data set [1] relates to carbachol- or histamine-induced bronchoconstriction. In words: Bronchodilator Test Method I, anesthetized dog, intraduodenal activity. The format is in vivo. The following applies: Canis lupus familiaris, read-out: Bronchodilation; for inhibition in vivo at 0.02 mg/kg: 20 mcg/kg (salt) intraduodenal; for inhibition in vivo at 0.08 mg/kg: 80 mcg/kg (salt) intraduodenal; for inhibition in vivo at 0.16 mg/kg: 160 mcg/kg (salt) intraduodenal. In outline:
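Pentobarbital-anesthetized (30 mg/kg i.v.) open-chest dogs of 9-18 kg, artificially ventilated; airway pressure recorded via tracheal cannula transducer. Test solution injected intraduodenally; from 5 min, i.v. carbachol (4-6 μg/kg) or histamine diphosphate (35-45 μg/kg) challenges every 30-60 min gauged degree and duration of bronchodilation.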

Data set [2] concerns guinea pig bronchioles constricted by carbachol. The data set is described as follows: Bronchodilator Test Method II, in vitro perfused guinea pig lung. The method, then: In this method bronchodilator activity in vitro was determined by testing the effect of graded doses of the test compounds on guinea pig bronchioles constricted by carbachol, using the technique reported by Sollman and von Oettingen, Proc. Soc, Exp. Biol. Med., 25,692 (1928) as modified by Tainter, Pedden, and James, J. Pharm. Exp. Ther., 51, 371 (1934) and by Luduena, von Euler, Tullar, and Lands, Arch. intern. Pharmacol., III, 392 (1957).

The test system of data set [3] is heart rate. In words: Cardiovascular studies: effect on the heart rate in the anesthetized dog. The format is in vivo. In outline: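 Anesthetized dogs, mostly spontaneously breathing, some open-chest, given rapid intravenous injections. Heart rate by electrocardiograph with blood pressure recorded simultaneously, every 0.5-1 minute for 10 minutes then every 2-5 minutes until recovery; several doses or compounds sometimes tested alternately in one dog.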

Data set [4] deals with diastolic blood pressure. In words: Effect on diastolic blood pressure in the anesthetized dog. The format is in vivo. The method, then: The effect of a rapid intravenous injection on the heart rate the heart rate was conducted in anesthetized dogs under normal respiration. A few open-chest dogs were also tested. Increase in heart rate was measured by using an electrocardiograph attached to the dog. Readings were taken every 0.5-1 minute for the first 10 minutes and every 2-5 minutes thereafter until recovery. In some cases, several doses and more than one compound were tested alternately in the same dog. The blood pressure effect was simultaneously recorded.

Data set [5] has as its system carbachol- or histamine-induced bronchoconstriction. In words: Bronchodilator Test Method I, anesthetized dog, intravenous activity. The format is in vivo. The note with it: Canis lupus familiaris; for inhibition in vivo at 0.005 mg/kg: 5 mcg/kg i.v.; for inhibition in vivo at 0.02 mg/kg: 20 mcg/kg i.v.; for inhibition in vivo at 0.04 mg/kg: 40 mcg/kg i.v.; for inhibition in vivo at 0.002 mg/kg: 2 mcg/kg i.v. In outline:
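Pentobarbital-anesthetized (30 mg/kg i.v.), open-chest, artificially ventilated dogs were given i.v. carbachol (4-6 µg/kg) or histamine diphosphate (35-45 µg/kg). Test compound was given i.v. mixed with, after, or 1-10 min before the constrictor.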

Data set [6] can be described thus: Stability of test solutions. The note with it: ethylenediaminetetraacetic acid added; distilled water or saline solutions.
Setting [7] is: 5 min, 5 min, read-out: Bronchodilatation.
Setting [8] is: 0.5 h, 30 min, read-out: Bronchodilatation.
Where [9] appears, read: 1 h, 60 min, read-out: Bronchodilatation.
Where [10] appears, read: 2 h, 120 min, read-out: Bronchodilatation.

Read-outs that look alike come from different tables or passages of the source. Where only a bound is given, the exact number is not on record here.

For `COc1ccc(C(=O)Oc2ccc(C(O)CNC(C)(C)C)cc2OC(C)=O)cc1` (stereo not drawn) [Example 145, 3-acetoxy-4-(p-anisoyloxy)-alpha-(tert-butylaminomethyl)benzyl alcohol methanesulfonate], the inhibition in vivo at 0.02 mg/kg in data set [1] (5 min, 5 min) amounted to 33%; in data set [1] (0.5 h, 30 min), 32%; in data set [1] (1 h, 60 min), 32%; in data set [1] (2 h, 120 min), 33%; in data set [1] (3 h, 180 min), 29%; in data set [1] (4 h, 240 min), 25%. Besides, the inhibition in vivo at 0.02 mg/kg in data set [1] (5 h, 300 min) was determined as 23%; in data set [5] (setting [7]), 87%; in data set [5] (setting [8]) it was 45%; in data set [5] (setting [9]), 35%; in data set [5] (setting [10]), 27%. Further, the inhibition in vivo at 0.08 mg/kg in data set [1] (5 min, 5 min) came to 53%; in data set [1] (0.5 h, 30 min), 48%; in data set [1] (1 h, 60 min), 45%; in data set [1] (2 h, 120 min), 49%; in data set [1] (3 h, 180 min), 32%; in data set [1] (4 h, 240 min), 30%. For the same compound, the inhibition in vivo at 0.16 mg/kg in data set [1] (5 min, 5 min) is 82%; in data set [1] (0.5 h, 30 min), 81%; in data set [1] (1 h, 60 min), 81%; in data set [1] (2 h, 120 min), 63%; in data set [1] (3 h, 180 min), 48%; in data set [1] (4 h, 240 min), 32%. Moreover, in data set [1] (5 h, 300 min), the inhibition in vivo at 0.16 mg/kg was determined as 37%. Also, the ED50 in data set [2] (carbachol (Doryl) 1:5 million) is 0.25 µg (base). Further, the “Duration, Mean” value in data set [2] (dose 1 mcg (base)) is recorded as over 72 min. Also, the figures for the “Mean Maximal Increase in the Heart Rate” value in data set [3] (1.25 mcg/kg (salt) i.v.), in data set [3] (5.0 mcg/kg (salt) i.v.) and in data set [3] (20 mcg/kg (salt) i.v.) were 9%, 13% and 27%, respectively. For the same compound, the “Mean Decrease in Diastolic Blood Pressure” value is 7% in data set [4] (1.25 meg/kg (salt) i.v.), 12% in data set [4] (5.0 meg/kg (salt) i.v.) and 20% in data set [4] (20 meg/kg (salt) i.v.). The inhibition in vivo at 0.005 mg/kg in data set [5] (setting [7]) was 65%; in data set [5] (setting [8]), 30%; in data set [5] (setting [9]), 24%; in data set [5] (setting [10]), 22%. Also, the inhibition in vivo at 0.04 mg/kg in data set [5] (setting [7]) was 98%; in data set [5] (setting [8]), 70%; in data set [5] (setting [9]), 68%; in data set [5] (setting [10]) it was 42%; in data set [5] (3 h, 180 min, read-out: Bronchodilatation) it was 38%; in data set [5] (4 h, 240 min, read-out: Bronchodilatation), 24%.
Take `CCC(NC(C)C)C(O)c1ccc(O)c(O)c1` (stereo not drawn) [IV, 3,4-Dihydroxy-alpha-[1-(isopropylamino)-propyl]benzyl alcohol, reference compound]: the “need for stabilizing agent in solution” value in data set [6] is “required to stabilize them”. Besides, the inhibition in vivo at 0.002 mg/kg was 32% in data set [5] (setting [7]) and 0% in data set [5] (setting [8]). For the same compound, the inhibition in vivo at 0.004 mg/kg in data set [5] (5 min, 4 mcg/kg i.v., 5 min, read-out: Bronchodilatation) was 72%; in data set [5] (0.5 h, 4 mcg/kg i.v., 30 min, read-out: Bronchodilatation), 31%; in data set [5] (1 h, 4 mcg/kg i.v., 60 min, read-out: Bronchodilatation) it was 19%. Further, the inhibition in vivo at 0.008 mg/kg in data set [5] (5 min, 8 mcg/kg i.v., 5 min, read-out: Bronchodilatation) was 74%; in data set [5] (0.5 h, 8 mcg/kg i.v., 30 min, read-out: Bronchodilatation), 13%; in data set [5] (1 h, 8 mcg/kg i.v., 60 min, read-out: Bronchodilatation) it was 13%.
Consider `CNCC(O)c1ccc(O)c(O)c1` (stereo not drawn) [V, 3,4-Dihydroxy-alpha-(methylaminomethyl)benzyl alcohol, reference compound], for which the “need for stabilizing agent in solution” value in data set [6] was “required to stabilize them”. For the same compound, the inhibition in vivo at 0.004 mg/kg in data set [5] (1 min, read-out: Bronchodilatation, 4 mcg/kg i.v., 1-2 min) was found to be 0%; in data set [5] (10 min, read-out: Bronchodilatation, 4 mcg/kg i.v., 10 min), 0%. In addition, the inhibition in vivo at 0.064 mg/kg was 29% in data set [5] (1 min, read-out: Bronchodilatation, 64 mcg/kg i.v., 1-2 min) and 0% in data set [5] (0.5 h, read-out: Bronchodilatation, 64 mcg/kg i.v., 30 min). For the same compound, the inhibition in vivo at 0.008 mg/kg in data set [5] (10 min, read-out: Bronchodilatation, 8 mcg/kg i.v., 10 min) came out at 0%; in data set [5] (0.5 h, read-out: Bronchodilatation, 8 mcg/kg i.v., 30 min) it was 0%. The inhibition in vivo at 0.016 mg/kg in data set [5] (0.5 h, read-out: Bronchodilatation, 16 mcg/kg i.v., 30 min) came to 5%.
